According to paper PMC11567856, “A novel peptide‐based tau aggregation inhibitor as a potential therapeutic for Alzheimer's disease and other tauopathies” (Alzheimer's & Dementia, 2024):
Where a SMILES comes first, the peptide text is derived from it. [ ]: non-standard residue; d: D form.

Key:
[1] = ThT fluorescence, self-assembly of peptide inhibitors without Tau; assay type: physicochemical; settings: ThT end-point 216 h (9 days); 20 µM peptide, PBS, 1 mM DTT, 20 µM ThT, 10 µM heparin, pH 7.4; n=3
Experimental: Fluorescence was measured (λex = 442 nm, λem = 483 nm), and data were normalized. […] The addition of inhibitor to the growth phase was controlled by adding an equivalent volume of buffer alone.
Experiments were conducted in triplicate and error bars were reported as standard deviation. Statistical analysis: p > 0.05, *p ≤ 0.05, **p ≤ 0.01, ***p ≤ 0.001.

Tau^Δ1‐250 = target: T1, Tau^Δ1‐250 (Homo sapiens, UniProt P10636); test: Congo-red staining of Tau^Δ1‐250 fibrils; assay type: biochemical; settings: Tau^Δ1‐250 incubated in the presence of RI‐AG03 (Figure S11)
T1 construct: Tau^Δ1‐250 (an aggregate prone truncated version of full‐length Tau); made in house; host or cells: E. coli BL21(DE3)
T1 sequence (P10636 568-758, stated change not applied): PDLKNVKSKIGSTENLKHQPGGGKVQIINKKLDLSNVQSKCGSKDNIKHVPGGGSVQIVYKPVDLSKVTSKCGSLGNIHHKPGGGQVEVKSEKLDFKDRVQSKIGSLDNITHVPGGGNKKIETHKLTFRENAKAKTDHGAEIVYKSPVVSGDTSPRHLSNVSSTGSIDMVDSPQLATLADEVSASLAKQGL
Experimental: Tau filament formation is expected to coincide with a reduction in disordered structure and an increase in β‐sheet content, even as the intermediary on‐pathway oligomers form.[67] […] However, the off‐pathway Tau aggregates that we have previously described have reduced β‐sheet content.[69] To study the β‐sheet content of the large amorphous aggregates formed in the presence of RI‐AG03, samples were analyzed using time‐resolved circular dichroism (CD) to investigate spectra changes indicative of secondary structure in the presence of RI‐AG03 over 5 h (Tau^Δ1‐250 aggregation plateaus at ∼5 h) (Figure 4E). The negative transition at 195 nm is characteristic of random coil structures being present within the Tau^Δ ^1‐250 (blue). […] Although challenging to deconvolute the increase in the negative ellipticity between ∼205 and 235 nm is consistent with the appearance of secondary structural elements including β‐strands. […] This reduction in β‐sheet content is corroborated by congo‐red staining, where the strong apple‐green birefringence observed for the Tau^Δ1‐250 fibrils was eliminated when the Tau^Δ1‐250 was incubated in the presence of RI‐AG03 (Figure S11).

[2] = tested on: Tau repeat domain (RD) with the P301S mutation fused to mCer and mClo, HEK293 biosensor cells; test: Tau fibril seeding in FRET Tau biosensor cells; assay type: cell-based, human
Experimental: Tau biosensor cells culture: RD P301S Tau biosensor cells have been previously described,[45] and in this case v2L cells were used. Cells were cultured in 10 cm dishes containing Dulbecco's Modified Eagle's Medium (DMEM) (Gibco) enriched with 10% FBS (HyClone), 1% penicillin/streptomycin (Gibco), and 1% GlutaMAX (Gibco) at 37°C with 5% CO2 in a humidified incubator.
5 µM of tau fibrils (monomer equivalent) were incubated in PBS with peptide RI‐AG03 or scramble (0–500 µM) at 300 rpm agitation at 4°C for 16 h. The reaction was stopped by flash freezing in liquid nitrogen and stored at –20°C. Tau biosensor cells were plated at a density of 30,000 cells in 120 µL of media per well in a 96‐well plate. After 18 h, using Lipofectamine 2000 cells were transduced with 10 nM of treated fibrils that had been briefly sonicated for 30 s at 65 Amp (QSonica). Lipofectamine complexes were formed in 30 µL consisting of 14.17 µL Opti‐MEM (Gibco), 15 µL of treated fibrils diluted in PBS, and 0.83 µL lipofectamine 2000 (Invitrogen), bringing the total volume to 150 µL. […] Aggregates in Tau biosensors (10,000 minimum) were quantified by FRET flow cytometry in a LSRFortessa SORP (BD Biosciences). To detect the cerulean signal, cells were excited with a 405 nm laser, and fluorescence was captured at […]. For clover signal, cells were excited with a 488 nm laser and fluorescence was detected at 525/50 nm. Flow cytometry data were analyzed using a gating strategy previously described.[45], [47] The percentage of cells with positive FRET signal were quantified. Each condition was analyzed in quadruplicate. […]
To test RI‐AG03 efficacy in mammalian cells, we utilized a fluorescence resonance energy transfer (FRET) biosensor HEK293 cell line that stably expresses the Tau repeat domain (RD) with the P301S mutation fused to mCer and mClo. These cells[45] or prior generations[71] have been used extensively to quantify Tau seeding activity and measure intracellular aggregation.[71] […] Seeded aggregation was quantified by the percentage of FRET positivity.

[3] = tested on: hTau^2N4R aggregates in Elav/hTau^2N4R flies; test: AFM of insoluble Tau fraction from fly heads; assay type: in vivo, Drosophila melanogaster; settings: 6 weeks of treatment, 0.08 µM inhibitor (Figure 6 legend), insoluble Tau prep, n = 3, p = 0.0045
Experimental: […] Decapitated fly heads were homogenized in TBS/sucrose buffer (50 mM Tris‐HCl pH 7.4, 175 mM NaCl, 1 M sucrose, 5 mM EDTA and protease inhibitor cocktail). Samples were spun for 2 min at 1000 g, retaining the supernatant, which was then spun at 100,000 g for 30 min at 4°C. The supernatant included the aqueous soluble fraction and monomeric Tau “NS1.” The pellet was re‐suspended at ∼20°C–25°C in 5% SDS/TBS buffer (50 mM Tris‐HCl pH 7.4, 175 mM NaCl, 5% SDS, and protease inhibitor cocktail) and spun at 100,000 g for 30 at 25°C. The pellet “NP1” was washed three times with water to remove the remaining SDS from the fractionation and re‐suspended in 1X PBS. A solid glass bead was added to each sample and incubated overnight in a rotor at 4°C. AFM: NP1 (5 µL) was diluted in 1X PBS and 25 µL of the sample was placed in a freshly cleaved 10 mm mica disc. These were incubated at ∼20°C–25°C for 5 min. Samples were rinsed four times with ultrapure water and dried with compressed air. Samples were imaged in the air with a digital multimode Nanoscope IV AFM operating in tapping mode with an aluminum‐coated non‐contact/Tapping mode probe (resonance frequency 320 kHz and force constant 42 N/m). The images are representative of the sample and were taken at random points on the sample with a scan rate of 1–2 Hz. […] Quantification of aggregates was carried out using ImageJ software.

CC[C@@H](C)[C@@H](NC(=O)[C@@H](CCCCNC(C)=O)NC(=O)[C@@H](Cc1ccc(O)cc1)NC(=O)[C@@H](CCCCN)NC(=O)[C@H]1CCCN1C(=O)CNC(=O)[C@@H](CCCNC(=N)N)NC(=O)[C@@H](CCCNC(=N)N)NC(=O)[C@@H](CCCNC(=N)N)NC(=O)[C@@H](CCCNC(=N)N)NC(=O)[C@@H](CCCNC(=N)N)NC(=O)[C@@H](CCCNC(=N)N)NC(=O)[C@@H](CCCNC(=N)N)NC(=O)[C@@H](CCCNC(=N)N)NC(C)=O)C(=O)N[C@H](CCC(N)=O)C(=O)N[C@@H](C(=O)NCC(=O)N[C@H](CCCNC(=N)N)C(N)=O)C(C)C [RI‐AG03] (Ac-[dR][dR][dR][dR][dR][dR][dR][dR]G[dP][dK][dY][dK](Ac)[dI][dQ][dV]G[dR]-NH2)
self-association into β‐sheets over 216 h [1]: does not self‐associate into β‐sheets
apple‐green birefringence of Tau^Δ1‐250 fibrils (congo‐red) (Tau^Δ1‐250): eliminated
concentrations with peptide‐induced toxicity (decrease in FRET positivity) ([2]; biosensor cells, fibrils preincubated with 0–500 µM peptide, Figure 5C): above 100 µM
aggregates (green puncta) in biosensor cells by fluorescence microscopy ([2]; preformed fibrils incubated with 30 µM peptide, compared with scramble peptide): fewer aggregates
reduction in oligomeric and fibrillar Tau species (AFM) [3]: 73%
